Values joined by “and” are separate entries in the source; they are usually repeats but may differ in a detail not shown here. Equal values may be shown once. Inconclusive results and toxic doses are left out.
System: BDF1 mice, L1210 leukemia sc, survival T/C
Assay: NCI In Vivo Anticancer Drug Screen. Data for tumor model L1210 Leukemia (subcutaneous) in B6D2F1 (BDF1) mice
Conditions: endpoint: median survival time, higher = longer survival
Procedure, shortened: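 Mice carrying transplanted tumors received test compounds, and survival or tumor size was measured. Values are the treated-group measurement (T) divided by that of the vehicle-treated control group (C).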

In the case of `O=NN(CCCl)C(=O)NCCCl`, the T/C (dose: 0.65 mg/kg/injection, schedule: Q01DX Z (sc), vehicle: methylcellulose (MC)) is reported as 115 % of control, the T/C (dose: 0.75 mg/kg/injection, schedule: Q01DX009 (ip), vehicle: saline) is reported as 110 % of control and the T/C (dose: 1.08 mg/kg/injection, schedule: Q## X Z (sc), vehicle: methylcellulose (MC)) is reported as 107 % of control. The T/C (dose: 1.5 mg/kg/injection, schedule: Q01DX009 (ip), vehicle: saline) was 120 % of control, the T/C (dose: 1.8 mg/kg/injection, schedule: Q01DX Z (sc), vehicle: methylcellulose (MC)) was 184 % of control and the T/C (dose: 1.8 mg/kg/injection, schedule: Q07DX Z (sc), vehicle: methylcellulose (MC)) was 107 % of control. The T/C (dose: 1.8 mg/kg/injection, schedule: Q## X Z (sc), vehicle: methylcellulose (MC)) was 115 % of control, the T/C (dose: 3.0 mg/kg/injection, schedule: Q01DX001 (ip), vehicle: saline) was 119 % of control and the T/C (dose: 3.0 mg/kg/injection, schedule: Q01DX001 (iv), vehicle: saline) was 123 % of control. The T/C (dose: 3.0 mg/kg/injection, schedule: Q01DX009 (ip), vehicle: saline) was 190 % of control, the T/C (dose: 3.0 mg/kg/injection, schedule: Q01DX Z (oral), vehicle: saline) was 205 % of control and the T/C (dose: 3.0 mg/kg/injection, schedule: Q01DX Z (sc), vehicle: methylcellulose (MC)) was 223 % of control. For the same molecule, the T/C (dose: 3.0 mg/kg/injection, schedule: Q07DX Z (sc), vehicle: methylcellulose (MC)) was 115 % of control, the T/C (dose: 3.0 mg/kg/injection, schedule: Q## X Z (sc), vehicle: methylcellulose (MC)) was 119 % of control and the T/C (dose: 3.0 mg/kg/injection, schedule: Q## X Z (sc), vehicle: saline) was 123 % of control. The T/C (dose: 5.0 mg/kg/injection, schedule: Q01DX001 (sc), vehicle: saline) was 115 % of control, the T/C (dose: 5.0 mg/kg/injection, schedule: Q01DX Z (oral), vehicle: saline) was 521 % of control and the T/C (dose: 5.0 mg/kg/injection, schedule: Q01DX Z (sc), vehicle: methylcellulose (MC)) was 200 % of control. The T/C (dose: 5.0 mg/kg/injection, schedule: Q07DX Z (sc), vehicle: saline) was 120 % of control and 123 % of control, the T/C (dose: 5.0 mg/kg/injection, schedule: Q## X Z (sc), vehicle: methylcellulose (MC)) was 173 % of control and the T/C (dose: 6.0 mg/kg/injection, schedule: Q01DX009 (ip), vehicle: saline) was 210 % of control. The T/C (dose: 8.4 mg/kg/injection, schedule: Q01DX001 (ip), vehicle: saline) was 233 % of control, the T/C (dose: 8.4 mg/kg/injection, schedule: Q01DX001 (iv), vehicle: saline) was 247 % of control and the T/C (dose: 8.4 mg/kg/injection, schedule: Q01DX Z (oral), vehicle: saline) was 284 % of control. The T/C (dose: 8.4 mg/kg/injection, schedule: Q01DX Z (sc), vehicle: methylcellulose (MC)) was 188 % of control, the T/C (dose: 8.4 mg/kg/injection, schedule: Q07DX Z (sc), vehicle: methylcellulose (MC)) was 161 % of control and the T/C (dose: 8.4 mg/kg/injection, schedule: Q07DX Z (sc), vehicle: other) was 305 % of control. The T/C (dose: 8.4 mg/kg/injection, schedule: Q07DX Z (sc), vehicle: saline) was 161 % of control and 210 % of control and 252 % of control, the T/C (dose: 8.4 mg/kg/injection, schedule: Q16DX002 (ip), vehicle: saline) was 172 % of control and the T/C (dose: 8.4 mg/kg/injection, schedule: Q## X Z (sc), vehicle: methylcellulose (MC)) was 250 % of control. The T/C (dose: 8.4 mg/kg/injection, schedule: Q## X Z (sc), vehicle: saline) was 246 % of control, the T/C (dose: 10.0 mg/kg/injection, schedule: Q01DX001 (sc), vehicle: methylcellulose (MC)) was 255 % of control and the T/C (dose: 10.0 mg/kg/injection, schedule: Q01DX001 (sc), vehicle: saline) was 185 % of control. For the same molecule, the T/C (dose: 10.8 mg/kg/injection, schedule: Q01DX001 (ip), vehicle: saline) was 150 % of control, the T/C (dose: 10.8 mg/kg/injection, schedule: Q01DX001 (sc), vehicle: saline) was 248 % of control and 250 % of control and the T/C (dose: 10.8 mg/kg/injection, schedule: Q07DX003 (sc), vehicle: saline) was 274 % of control and 275 % of control. The T/C (dose: 14.0 mg/kg/injection, schedule: Q01DX001 (iv), vehicle: saline) was 209 % of control, the T/C (dose: 14.0 mg/kg/injection, schedule: Q01DX Z (oral), vehicle: saline) was 194 % of control and the T/C (dose: 14.0 mg/kg/injection, schedule: Q01DX Z (sc), vehicle: saline) was 161 % of control and 273 % of control and 285 % of control. The T/C (dose: 14.0 mg/kg/injection, schedule: Q01HX002 (ip), vehicle: saline) was 315 % of control, the T/C (dose: 14.0 mg/kg/injection, schedule: Q07DX Z (sc), vehicle: methylcellulose (MC)) was 173 % of control and the T/C (dose: 14.0 mg/kg/injection, schedule: Q07DX Z (sc), vehicle: other) was 88 % of control. The T/C (dose: 14.0 mg/kg/injection, schedule: Q07DX Z (sc), vehicle: saline) was 200 % of control, the T/C (dose: 14.0 mg/kg/injection, schedule: Q16DX002 (ip), vehicle: saline) was 315 % of control and the T/C (dose: 14.0 mg/kg/injection, schedule: Q## X Z (sc), vehicle: methylcellulose (MC)) was 315 % of control. For the same molecule, the T/C (dose: 14.0 mg/kg/injection, schedule: Q## X Z (sc), vehicle: saline) was 315 % of control, the T/C (dose: 18.0 mg/kg/injection, schedule: Q01DX001 (ip), vehicle: saline) was 181 % of control and 200 % of control and the T/C (dose: 18.0 mg/kg/injection, schedule: Q01DX001 (sc), vehicle: saline) was 310 % of control and 352 % of control. The T/C (dose: 18.0 mg/kg/injection, schedule: Q07DX003 (sc), vehicle: saline) was 645 % of control and 660 % of control, the T/C (dose: 20.0 mg/kg/injection, schedule: Q01DX001 (sc), vehicle: methylcellulose (MC)) was 240 % of control and the T/C (dose: 20.0 mg/kg/injection, schedule: Q01DX001 (sc), vehicle: saline) was 270 % of control. The T/C (dose: 23.0 mg/kg/injection, schedule: Q01DX001 (ip), vehicle: saline) was 480 % of control, the T/C (dose: 23.0 mg/kg/injection, schedule: Q01DX001 (iv), vehicle: saline) was 423 % of control and the T/C (dose: 23.0 mg/kg/injection, schedule: Q01DX Z (oral), vehicle: saline) was 157 % of control. The T/C (dose: 23.0 mg/kg/injection, schedule: Q01HX002 (ip), vehicle: saline) was 315 % of control, the T/C (dose: 23.0 mg/kg/injection, schedule: Q07DX Z (sc), vehicle: methylcellulose (MC)) was 184 % of control and the T/C (dose: 23.0 mg/kg/injection, schedule: Q07DX Z (sc), vehicle: other) was 555 % of control. The T/C (dose: 23.0 mg/kg/injection, schedule: Q07DX Z (sc), vehicle: saline) was 438 % of control and 631 % of control and 645 % of control, the T/C (dose: 23.0 mg/kg/injection, schedule: Q16DX002 (ip), vehicle: saline) was 315 % of control and the T/C (dose: 23.0 mg/kg/injection, schedule: Q## X Z (sc), vehicle: saline) was 284 % of control. The T/C (dose: 24.0 mg/kg/injection, schedule: Q01DX009 (ip), vehicle: saline) was 115 % of control, the T/C (dose: 30.0 mg/kg/injection, schedule: Q01DX001 (ip), vehicle: saline) was 218 % of control and 483 % of control and the T/C (dose: 30.0 mg/kg/injection, schedule: Q01DX001 (sc), vehicle: saline) was 410 % of control and 441 % of control. The T/C (dose: 30.0 mg/kg/injection, schedule: Q07DX003 (sc), vehicle: saline) was 295 % of control and 303 % of control, the T/C (dose: 39.0 mg/kg/injection, schedule: Q01DX001 (ip), vehicle: saline) was 309 % of control and the T/C (dose: 39.0 mg/kg/injection, schedule: Q07DX Z (sc), vehicle: other) was 294 % of control. For the same molecule, the T/C (dose: 39.0 mg/kg/injection, schedule: Q07DX Z (sc), vehicle: saline) was 173 % of control and 315 % of control, the T/C (dose: 40.0 mg/kg/injection, schedule: Q01DX001 (sc), vehicle: methylcellulose (MC)) was 230 % of control and the T/C (dose: 40.0 mg/kg/injection, schedule: Q01DX001 (sc), vehicle: saline) was 195 % of control. The T/C (dose: 48.0 mg/kg/injection, schedule: Q01DX001 (ip), vehicle: saline) was 292 % of control, the T/C (dose: 50.0 mg/kg/injection, schedule: Q01DX001 (ip), vehicle: saline) was 475 % of control and the T/C (dose: 50.0 mg/kg/injection, schedule: Q01DX001 (sc), vehicle: saline) was 205 % of control. The T/C (dose: 60.0 mg/kg/injection, schedule: Q01DX001 (ip), vehicle: saline) was 124 % of control, the T/C (dose: 65.0 mg/kg/injection, schedule: Q01DX001 (oral), vehicle: saline) was 114 % of control and the T/C (dose: 65.0 mg/kg/injection, schedule: Q07DX Z (sc), vehicle: other) was 205 % of control. The T/C (dose: 80.0 mg/kg/injection, schedule: Q01DX001 (sc), vehicle: methylcellulose (MC)) was 110 % of control, the T/C (dose: 80.0 mg/kg/injection, schedule: Q01DX001 (sc), vehicle: saline) was 110 % of control and the T/C (dose: 108.0 mg/kg/injection, schedule: Q01DX001 (oral), vehicle: saline) was 104 % of control. For the same molecule, the T/C (dose: 120.0 mg/kg/injection, schedule: Q01DX001 (sc), vehicle: methylcellulose (MC)) was 100 % of control, the T/C (dose: 120.0 mg/kg/injection, schedule: Q01DX001 (sc), vehicle: saline) was 105 % of control and the T/C (dose: 180.0 mg/kg/injection, schedule: Q01DX001 (oral), vehicle: saline) was 95 % of control.
